Reference: patent publication US20230346281A1, “Fully Printed Electrode Biological Interface” (Early Charm Ventures, priority 2022, published 2023)

Test system: HepG2 hepatocytes tissue layers
Test: Live cell viability / CEIS recordings in the presence of a cytotoxic agent (EtOH)
Type: cell-based, human
Details: 12 hour exposure to EtOH (70% final); HEPG2 2 million cells/mL with PEG-PLL (1:10) hydrogel
Method: A toxicological agent, Ethanol (EtOH) was used as a clinically relevant cytotoxic agent for the HepG2 hepatocytes tissue layers, HEPG2 (2 million cells/mL) with PEG-PLL (1:10) hydrogel. CEIS recordings were obtained at 1 hour and 24 hours post deposition with and without the cytoxic agent, Table 3. A final CEIS recording was obtained from these cells following a 12 hour exposure to EtOH (70% final). A marked increase in amplitude with additional recovery time post deposition (1 vs 24 hours).

## CCO [EtOH, Ethanol]
  amplitude of CEIS recordings: increased the observed amplitude of CEIS recordings
